Values joined by “and” are separate entries in the source; they are usually repeats but may differ in a detail not shown here. Equal entries are not always repeated.
Key:
[1] = tested on: C6 cells; format: cell-based, rats
[2] = tested on: C6 cells; test: In vitro potency test/neutralization assay with fish sera on C6 cells; format: cell-based, rats
Procedure: In line with Example 7, an in vitro potency test/neutralization assay was performed with the sera raised as described in Example 8. For this, C6 cells were seeded at 2.0*10^4 cells/ml, 100 μl per well, and grown at 37° C., 5% CO2 for 3 days. Cells were incubated for 48 h, with a combination of 20 μg/ml AFB1 and 32× diluted serum derived from fish vaccinated with AFB1-KLH in GNE or vaccinated with a placebo. Percentages of live cells were determined by microscopical evaluation.

[3] = format: in vivo; details: pig plasma; DON bolus 0.05 mg/kg at 11 weeks of age; DON-KLH = pigs immunised IM at 3 and 6 weeks, DON = control pigs
Procedure: Ten 3 week old pigs were used in the study, divided over 2 groups of 5 pigs each. The pigs in Group 1 were immunised IM twice at 3 and 6 weeks of age with DON-KLH (Test Article 1; example1). Group 2 served as a control and only received a control fluid. At the age of 11 weeks the animals were each administered DON (Fermentek, Israel) via a bolus at a dose of 0.05 mg/kg which (based on the daily feed intake) resembled a contamination level of 1 mg/kg feed. Blood samples of the pigs were taken juts before DON administration and 0.25, 0.5, 0.75, 1, 1.5, 2, 3, 4, 6, 8, and 12 h post DON administration.
Plasma analysis of unbound DON was done using a validated LC-MS/MS method on an Acquity® UPLC system coupled to a Xevo® TQ-S MS instrument (Waters, Zellik, Belgium). The lower limit of quantification of DON in pig plasma using this method is 0.1 ng/ml.
Toxicokinetic modeling of the plasma concentration-time profiles of DON was done by noncompartmental analysis (Phoenix, Pharsight Corporation, USA). Following parameters were calculated: area under the curve from time zero to infinite (AUC0→∞), maximal plasma concentration (Cmax), and time at maximal plasma concentration (tmax).

Row | Compound | concentration from which toxic on C6 cells (dose response curve) [1] [ng/mL] | Percentage live cells after incubation with AFB1 and diluted fish serum [2] | AUC0→∞ of unbound DON [3] | Cmax of unbound DON [3]
1 | COc1cc2c(c3oc(=O)c4c(c13)CCC4=O)[C@@H]1C=CO[C@@H]1O2 [AFB1, Aflatoxin B1] | ≥ 20000 | 95% and 65% | – | –
2 | CC1=C[C@H]2O[C@@H]3[C@H](O)C[C@](C)([C@@]2(CO)[C@H](O)C1=O)[C@]31CO1 [DON, deoxynivalenol] | – | – | 187 ± 33 | 30.8 ± 2.5

Reference: patent publication US20240024446A1 (priority 2020, published 2024)
